Test results from US6071884A, “Pharmaceutical compositions and therapeutic methods” (Kirin Beer Kabushiki Kaisha, priority 1992, dated 2000).

Tests used:
blood platelets = assay: Thrombocytopenia-inhibiting effect in X-ray-irradiated mice; type: in vivo, mouse (BDF1); details: 10 days after 5 Gy X-ray; 0.1 mg/kg i.v. within 2 h; mean ± SD; vehicle per series 10.3, 6.8, 6.7; non-treatment 68.2, 96.9, 73.0
Method in brief: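 Female BDF1 mice, 6 weeks old, six per group, given 5 Gy whole-body X-ray, then 0.1 mg/kg i.v. via tail vein within 2 hours. Platelets counted by hemocytometer in fundus-vein blood 10 days later; untreated and vehicle groups run alongside.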

[1] = test system: mononuclear cell fraction of human umbilical cord blood; assay: Proliferation-stimulating effect on mononuclear cell fraction of human umbilical cord blood (3H-TdR uptake); type: cell-based; details: 96 h, percentage of control, 4 days
Method in brief: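 Umbilical cord blood MNF (Lymphoprep) cultured at 1×10^6 cells/ml in RPMI 1640 with 10% autologous plasma with sample for 4 days at 37° C, 5% CO2. 0.5 μCi/well 3H-TdR then added for 8 h, and nuclear uptake measured by liquid scintillation counting.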

CCCCCCCCCCCCCCCCCCCCCCCCCC(=O)N[C@@H](CO[C@H]1O[C@H](CO)[C@H](O)[C@H](O)[C@H]1O)[C@H](O)[C@H](O)CCCCCCCCCCCCCC [Compound 33, (2S,3S,4R)-1-(α-D-galactopyranosyloxy)-2-hexacosanoylamino-3,4-octadecanediol] was tested, and the “Number of Blood Platelets” value (blood platelets) was 23.9 ± 6.5 × 10^4 /μl, the activity at 0.1 µg/mL ([1]; 10^-1 μg/ml) was 409% and the activity at 0.01 µg/mL ([1]; 10^-2 μg/ml) was 256%. It also gave an activity at 0.001 µg/mL ([1]; 10^-3 μg/ml) of 228%.
